Patent US5371081A, “N-substituted phenoxazines for treating multidrug resistant cancer cells” (St. Jude Children's Research Hospital, priority 1993, dated 1994)
Where two headings read alike, the source gives them in different places.

Tests used:
[1] = test system: KB Ch^R -8-5 Cells; assay: Vinca (VCR, VLB) accumulation, anti-MDR activity; assay type: cell-based; conditions: Homo sapiens, compound 100 μM, 2 h, room temperature, mean of two experiments, SD <10%
Procedure: The resistance of the KBCh®-8-5 cells was maintained by culturing them with colchicine (10 ng/ml).
Then, 2 mL of cell suspensions (2×10^6) were plated in 35×10 mm style "easy grip" culture dishes (Becton Dickinson Co., Lincoln Park, N.J.). Cells were allowed to attach to plastic overnight at 37° C. Medium was aspirated and cells were washed with (2×2 mL) physiologic tris (PT) buffer. […] VCR (sp.act. 7.1 ci/mmol) or 49.5 nm [^3 H] […] After 2 h of incubation at room temperature, medium was rapidly aspirated to terminate drug accumulation, and monolayers were washed four times with ice-cold PBS (g/L: NaCL 8.0; Na2 HPO4.12H2 O, 2.9; KCl 0.2; KH2 PO4, 0.2) and drained. To each dish, 1 ml of trypsin-EDTA (0.05% trypsin, 0.53 mM EDTA) was added. After 1 minute, monolayers were triturated to give a uniform suspension of cells, and radioactivity in 0.75 ml was determined by scintillation counting. Cell number per dish was determined on 200 μl of suspension using the method of Butler, and amounts of intracellular VCR or VLB were determined.

[2] = test system: GC3 /Cl Cells; assay: Vinca (VCR, VLB) accumulation, anti-MDR activity; assay type: cell-based; conditions: Homo sapiens, compound 100 μM, 2 h, room temperature, mean of two experiments, SD <10%
[3] = test system: GC3 /CL; assay: Cytotoxicity of N-substituted phenoxazines to tumor cells (clonogenic survival); assay type: cell-based; conditions: Homo sapiens, 168 h, 7 days, 37° C., read-out: IC50 (50% reduction in clonogenic survival)
Procedure: (§1) The KBCh®-8-5 cells were plated in triplicate at a density of 1000 cells per well and GC3 at 3000 cells per well in Falcon 6-well flat-bottom tissue culture plates (Becton Dickinson Co., Lincoln Park, N.J.). After 24 h, incubation medium was replaced with 3 mL of fresh medium containing compounds 1-4 or 10-14 or 18 at concentrations ranging from 1-100 μm (final culture concentration, 0.1% DMSO), and cells were incubated at 37° C. for a further 7 days. The medium was aspirated and cells were washed once with 2 mL of 0.9% saline and dried overnight. Colonies were stained with 1 mL of 0.1% crystal violet followed by washing twice with distilled water and were counted using an automated ARTEK Model 880 colony counter. The IC50 values were determined from concentration-percent-cell-survival curves and were defined as the concentrations of phenoxazines required for 50% reduction in colonies compared to controls.
(§2) ^a IC50 is the concentration required to produce 50% reduction i
(§3) clonogenic survivial of GC3 /Cl and KBCH^R -85 cells under the
(§4) conditions described in Example 23.

[4] = test system: KBCh^R -8-5; assay: as above; assay type: cell-based; conditions: Homo sapiens, 168 h, 7 days, 37° C., read-out: IC50 (50% reduction in clonogenic survival)
Procedure: as §1, §2, §3, §4

[5] = test system: GC3 /Cl Cells; assay: Potentiation of cytotoxicity of vincristine and vinblastine; assay type: cell-based; conditions: Homo sapiens, 168 h, read-out: IC50 of VLB alone
Procedure: (§5) Tumor cells were treated with graded concentrations of VCR and VLB in the absence or presence of nontoxic concentrations of the products of Examples 1, 3, 4 and 18. The plates were then transferred to a CO2 incubator and, after further incubation for 7 days at 37° C., colonies were enumerated as described in Example 23.
(§6) ^a IC50 concentration of modulator

[6] = test system: KB Ch^R -8-5 Cells; assay: as above; assay type: cell-based; conditions: Homo sapiens, 168 h, read-out: IC50 of VLB alone
Procedure: as §5, §6

[7] = test system: KBCh®-8-5; assay: Cross-resistance of cell line to VCR and VLB; assay type: cell-based, human; conditions: KBCh®-8-5, colchicine selected MDR variant
Procedure: A cloned line of human colon adenocarcinoma, GC3 /Cl^31, which is intrinsically resistant to VCR (≈4-fold relative to KB-3-1), was routinely grown at 37° C. in antibiotic-free RPMI-1640 medium supplemented with 2 mM glutamine and 10% FBS (Hyclone Laboratories, Inc., Logan, Utah) in a humidified atmosphere of 5% CO2 and 95% air. Human epidermoid carcinoma KB-3-1 cells and a colchicine selected MDR variant, KBCh®-8-5, were obtained which was cross-resistant to VCR (45-fold) and VLB (6.3-fold); it was grown in monolayer culture at 37° C. in DMEM with 10% FBS and L-glutamine in a humidified atmosphere of 10% CO2 in air. The resistance of the KBCh®-8-5 cells was maintained by culturing them with colchicine (10 ng/ml).

[8] = test system: MDR; conditions: in model systems; cited from earlier work
[9] = [3H] VCR 70.4 nm, read-out: Vinca Accumulation, VCR
[10] = [3H] VLB 49.5 nm, read-out: Vinca Accumulation, VLB

SMILES	activity at 100 µM [1, 9]	activity at 100 µM [2, 9]	IC50 [3]	IC50 [4]	activity at 100 µM [1, 10]	other results
ClCCCN1c2ccccc2Oc2ccccc21 [Compound 1, 10-(3'-chloropropyl)-phenoxazine]	454%	846%	83 µM	57 µM		
CCN(CC)CCCN1c2ccccc2Oc2ccccc21 [Compound 2, 10-(3'-diethylaminopropyl)phenoxazine]	546%	439%		15 µM		
OCCN(CCO)CCCN1c2ccccc2Oc2ccccc21 [Compound 3, 10-(3'-bishydroxyethylaminopropyl)phenoxazine]	473%	464%	37 µM	38 µM		
c1ccc2c(c1)Oc1ccccc1N2CCCN1CCOCC1 [Compound 4, 10-(3'-N-morpholinopropyl)phenoxazine]	742%	634%	40 µM	73 µM		
c1ccc2c(c1)Oc1ccccc1N2CCCN1CCCCC1 [Compound 5, 10-(3'-N-piperidinopropyl)phenoxazine]	435%	282%				
OCCN1CCN(CCCN2c3ccccc3Oc3ccccc32)CC1 [Compound 6, 10-(3'-β-hydroxyethylpiperazinopropyl) phenoxazine]	343%	368%				
c1ccc2c(c1)Oc1ccccc1N2CCCN1CCCC1 [Compound 7, 10-(3'-N-pyrrolidinopropyl)phenoxazine]	408%	250%				
ClCCCCN1c2ccccc2Oc2ccccc21 [Compound 8, 10-(4'-chlorobutyl)phenoxazine]	398%	317%				
CCN(CC)CCCCN1c2ccccc2Oc2ccccc21 [Compound 9, 10-(4'-diethylaminobutyl)phenoxazine]	211%	325%				
OCCN(CCO)CCCCN1c2ccccc2Oc2ccccc21 [Compound 10, 10-(4'-bishydroxyethylaminobutyl) phenoxazine]	92%	382%	16 µM	< 10 µM		
c1ccc2c(c1)Oc1ccccc1N2CCCCN1CCOCC1 [Compound 11, 10-(4'-N-morpholinobutyl)phenoxazine]	702%	477%	27 µM	18 µM		
c1ccc2c(c1)Oc1ccccc1N2CCCCN1CCCCC1 [Compound 12, 10-(4'-N-piperidinobutyl)phenoxazine]	196%	416%	7 µM	< 10 µM		
OCCN1CCN(CCCCN2c3ccccc3Oc3ccccc32)CC1 [Compound 13, 10-(4'-β-hydroxyethylpiperazinobutyl) phenoxazine]	91%	543%	7 µM	< 10 µM	188%	
c1ccc2c(c1)Oc1ccccc1N2CCCCN1CCCC1 [Compound 14, 10-(4'-N-pyrrolidinobutyl)phenoxazine]	198%	412%	8 µM	< 10 µM	477%	
O=C(CCl)N1c2ccccc2Oc2ccccc21 [Compound 15, 10-(chloroacetyl)phenoxazine]	138%	171%			236%	activity at 100 µM [2, 10]: 284%
CCN(CC)CC(=O)N1c2ccccc2Oc2ccccc21 [Compound 16, 10-(diethylaminoacetyl)phenoxazine]	184%	160%			953%	activity at 100 µM [2, 10]: 305%
O=C(CN1CCOCC1)N1c2ccccc2Oc2ccccc21 [Compound 17, 10-(N-morpholinoacetyl)phenoxazine]	290%	213%			674%	activity at 100 µM [2, 10]: 298%
O=C(CN1CCCCC1)N1c2ccccc2Oc2ccccc21 [Compound 18, 10-(N-piperidinoacetyl)phenoxazine]	326%	177%		73 µM		activity at 100 µM [2, 10]: 446%
O=C(CN1CCN(CCO)CC1)N1c2ccccc2Oc2ccccc21 [Compound 19, 10-(β-hydroxyethylpiperazinoacetyl)phenoxazine]	280%	157%			776%	activity at 100 µM [2, 10]: 426%
O=C(CN1CCCC1)N1c2ccccc2Oc2ccccc21 [Compound 20, 10-(N-pyrrolidinoacetyl)phenoxazine]	188%	151%			776%	activity at 100 µM [2, 10]: 296%
O=C(N1c2ccccc2Oc2ccccc21)C(F)(F)F [Compound 21, 10-(trifluoroacetyl)phenoxazine]	415%	230%			827%	activity at 100 µM [2, 10]: 222%
CC[C@]1(O)C[C@@H]2CN(CCc3c([nH]c4ccccc34)[C@@](C(=O)OC)(c3cc4c(cc3OC)N(C)[C@H]3[C@@](O)(C(=O)OC)[C@H](OC(C)=O)[C@]5(CC)C=CCN6CC[C@]43[C@@H]65)C2)C1 [VLB]						IC50 [5]: 0.0074 µM; IC50 [6]: 0.02 µM; cross-resistance to VLB [7]: 6.3 fold
COc1ccc(CCN(C)CCCC(C#N)(c2ccc(OC)c(OC)c2)C(C)C)cc1OC (stereo not shown) [Verapamil]						modifying MDR [8]: active in modifying MDR
C=C[C@H]1C[N@@]2CC[C@H]1C[C@@H]2[C@@H](O)c1ccnc2ccc(OC)cc12 [quinidine]						modifying MDR [8]: active in modifying MDR
COC(=O)[C@H]1[C@H]2C[C@@H]3c4[nH]c5cc(OC)ccc5c4CCN3C[C@H]2C[C@@H](OC(=O)c2cc(OC)c(OC)c(OC)c2)[C@@H]1OC [reserpine]						modifying MDR [8]: active in modifying MDR
CN1CCN(CCCN2c3ccccc3Sc3ccc(C(F)(F)F)cc32)CC1 [trifluoperazine]						modifying MDR [8]: active in modifying MDR
